Data from the NIST ThermoML archive (doi:10.1016/j.jct.2016.03.030).
Numbers after ± are expanded uncertainties.

Assay: xn = mol fraction of the nth substance listed
Conditions: 100 kPa, Liquid; for viscosity: Falling or rolling sphere viscometry; for mass density: Vibrating tube method

## CCCCC[N+]1(C)CCOCC1.[Br-] [4-methyl-4-pentylmorpholinium bromide] + O
298.15 K, x1 = 0.0316
  viscosity: 1.957 ± 0.2 mPa·s
  mass density: 1072.8 ± 1.1 kg/m3
298.15 K, x1 = 0.0695
  viscosity: 4.131 ± 0.41 mPa·s
  mass density: 1127.6 ± 1 kg/m3
298.15 K, x1 = 0.0965
  viscosity: 6.746 ± 0.68 mPa·s
  mass density: 1153.8 ± 1 kg/m3
298.15 K, x1 = 0.1196
  viscosity: 9.795 ± 0.98 mPa·s
  mass density: 1170 ± 1 kg/m3
298.15 K, x1 = 0.1522
  viscosity: 16.25 ± 1.6 mPa·s
  mass density: 1187.7 ± 1.1 kg/m3
298.15 K, x1 = 0.2054
  viscosity: 36.11 ± 3.6 mPa·s
  mass density: 1208.2 ± 1.1 kg/m3
298.15 K, x1 = 0.219
  viscosity: 44.38 ± 4.5 mPa·s
  mass density: 1212.2 ± 1.2 kg/m3
298.15 K, x1 = 0.2438
  viscosity: 64.59 ± 6.5 mPa·s
  mass density: 1218.9 ± 1.3 kg/m3
298.15 K, x1 = 0.2754
  viscosity: 103.9 ± 11 mPa·s
  mass density: 1226 ± 1.4 kg/m3
303.15 K, x1 = 0.0316
  viscosity: 1.7 ± 0.17 mPa·s
  mass density: 1070.5 ± 1.1 kg/m3
303.15 K, x1 = 0.0695
  viscosity: 3.505 ± 0.35 mPa·s
  mass density: 1124.5 ± 1 kg/m3
303.15 K, x1 = 0.0965
  viscosity: 5.63 ± 0.56 mPa·s
  mass density: 1150.6 ± 1 kg/m3
303.15 K, x1 = 0.1196
  viscosity: 8.076 ± 0.81 mPa·s
  mass density: 1166.6 ± 1 kg/m3
303.15 K, x1 = 0.1522
  viscosity: 13.14 ± 1.3 mPa·s
  mass density: 1184.4 ± 1.1 kg/m3
303.15 K, x1 = 0.2054
  viscosity: 28.07 ± 2.8 mPa·s
  mass density: 1204.9 ± 1.1 kg/m3
303.15 K, x1 = 0.219
  viscosity: 34.04 ± 3.4 mPa·s
  mass density: 1208.8 ± 1.2 kg/m3
303.15 K, x1 = 0.2438
  viscosity: 48.66 ± 4.9 mPa·s
  mass density: 1215.6 ± 1.2 kg/m3
303.15 K, x1 = 0.2754
  viscosity: 76.46 ± 7.7 mPa·s
  mass density: 1222.7 ± 1.4 kg/m3
308.15 K, x1 = 0.0316
  viscosity: 1.484 ± 0.15 mPa·s
  mass density: 1067.9 ± 1.1 kg/m3
308.15 K, x1 = 0.0695
  viscosity: 2.997 ± 0.3 mPa·s
  mass density: 1121.3 ± 1 kg/m3
308.15 K, x1 = 0.0965
  viscosity: 4.74 ± 0.48 mPa·s
  mass density: 1147.2 ± 1 kg/m3
308.15 K, x1 = 0.1196
  viscosity: 6.709 ± 0.67 mPa·s
  mass density: 1163.3 ± 1 kg/m3
308.15 K, x1 = 0.1522
  viscosity: 10.79 ± 1.1 mPa·s
  mass density: 1181 ± 1.1 kg/m3
308.15 K, x1 = 0.2054
  viscosity: 22.24 ± 2.2 mPa·s
  mass density: 1201.5 ± 1.1 kg/m3
308.15 K, x1 = 0.219
  viscosity: 26.62 ± 2.7 mPa·s
  mass density: 1205.5 ± 1.2 kg/m3
308.15 K, x1 = 0.2438
  viscosity: 37.45 ± 3.8 mPa·s
  mass density: 1212.2 ± 1.2 kg/m3
308.15 K, x1 = 0.2754
  viscosity: 57.57 ± 5.8 mPa·s
  mass density: 1219.4 ± 1.4 kg/m3
313.15 K, x1 = 0.0316
  viscosity: 1.309 ± 0.13 mPa·s
  mass density: 1065.3 ± 1.1 kg/m3
313.15 K, x1 = 0.0695
  viscosity: 2.586 ± 0.26 mPa·s
  mass density: 1118.1 ± 1 kg/m3
313.15 K, x1 = 0.0965
  viscosity: 4.035 ± 0.4 mPa·s
  mass density: 1143.9 ± 1 kg/m3
313.15 K, x1 = 0.1196
  viscosity: 5.642 ± 0.57 mPa·s
  mass density: 1159.8 ± 1 kg/m3
313.15 K, x1 = 0.1522
  viscosity: 8.994 ± 0.9 mPa·s
  mass density: 1177.5 ± 1.1 kg/m3
313.15 K, x1 = 0.2054
  viscosity: 17.82 ± 1.8 mPa·s
  mass density: 1198.1 ± 1.1 kg/m3
313.15 K, x1 = 0.219
  viscosity: 21.2 ± 2.1 mPa·s
  mass density: 1202.1 ± 1.2 kg/m3
313.15 K, x1 = 0.2438
  viscosity: 29.17 ± 2.9 mPa·s
  mass density: 1208.9 ± 1.2 kg/m3
313.15 K, x1 = 0.2754
  viscosity: 44.03 ± 4.4 mPa·s
  mass density: 1216.1 ± 1.4 kg/m3
318.15 K, x1 = 0.0316
  viscosity: 1.159 ± 0.12 mPa·s
  mass density: 1062.6 ± 1.1 kg/m3
318.15 K, x1 = 0.0695
  viscosity: 2.252 ± 0.23 mPa·s
  mass density: 1114.9 ± 1 kg/m3
318.15 K, x1 = 0.0965
  viscosity: 3.465 ± 0.35 mPa·s
  mass density: 1140.5 ± 1 kg/m3
318.15 K, x1 = 0.1196
  viscosity: 4.796 ± 0.48 mPa·s
  mass density: 1156.4 ± 1 kg/m3
318.15 K, x1 = 0.1522
  viscosity: 7.569 ± 0.76 mPa·s
  mass density: 1174.1 ± 1.1 kg/m3
318.15 K, x1 = 0.2054
  viscosity: 14.56 ± 1.5 mPa·s
  mass density: 1194.7 ± 1.1 kg/m3
318.15 K, x1 = 0.219
  viscosity: 17.13 ± 1.7 mPa·s
  mass density: 1198.7 ± 1.2 kg/m3
318.15 K, x1 = 0.2438
  viscosity: 23.22 ± 2.3 mPa·s
  mass density: 1205.5 ± 1.2 kg/m3
318.15 K, x1 = 0.2754
  viscosity: 34.22 ± 3.4 mPa·s
  mass density: 1212.7 ± 1.4 kg/m3
323.15 K, x1 = 0.0316
  viscosity: 1.023 ± 0.1 mPa·s
  mass density: 1059.7 ± 1.1 kg/m3
323.15 K, x1 = 0.0695
  viscosity: 1.95 ± 0.2 mPa·s
  mass density: 1111.5 ± 1 kg/m3
323.15 K, x1 = 0.0965
  viscosity: 2.963 ± 0.3 mPa·s
  mass density: 1137 ± 1 kg/m3
323.15 K, x1 = 0.1196
  viscosity: 4.065 ± 0.41 mPa·s
  mass density: 1152.9 ± 1 kg/m3
323.15 K, x1 = 0.1522
  viscosity: 6.349 ± 0.64 mPa·s
  mass density: 1170.6 ± 1.1 kg/m3
323.15 K, x1 = 0.2054
  viscosity: 11.9 ± 1.2 mPa·s
  mass density: 1191.3 ± 1.1 kg/m3
323.15 K, x1 = 0.219
  viscosity: 13.89 ± 1.4 mPa·s
  mass density: 1195.4 ± 1.2 kg/m3
323.15 K, x1 = 0.2438
  viscosity: 18.52 ± 1.9 mPa·s
  mass density: 1202.2 ± 1.2 kg/m3
323.15 K, x1 = 0.2754
  viscosity: 26.85 ± 2.7 mPa·s
  mass density: 1209.4 ± 1.3 kg/m3
328.15 K, x1 = 0.0316
  viscosity: 0.908 ± 0.091 mPa·s
  mass density: 1056.6 ± 1.1 kg/m3
328.15 K, x1 = 0.0695
  viscosity: 1.703 ± 0.17 mPa·s
  mass density: 1108.1 ± 1 kg/m3
328.15 K, x1 = 0.0965
  viscosity: 2.557 ± 0.26 mPa·s
  mass density: 1133.5 ± 1 kg/m3
328.15 K, x1 = 0.1196
  viscosity: 3.475 ± 0.35 mPa·s
  mass density: 1149.4 ± 1 kg/m3
328.15 K, x1 = 0.1522
  viscosity: 5.382 ± 0.54 mPa·s
  mass density: 1167.1 ± 1.1 kg/m3
328.15 K, x1 = 0.2054
  viscosity: 9.86 ± 0.99 mPa·s
  mass density: 1187.9 ± 1.1 kg/m3
328.15 K, x1 = 0.219
  viscosity: 11.44 ± 1.1 mPa·s
  mass density: 1191.9 ± 1.2 kg/m3
328.15 K, x1 = 0.2438
  viscosity: 15.02 ± 1.5 mPa·s
  mass density: 1198.8 ± 1.2 kg/m3
328.15 K, x1 = 0.2754
  viscosity: 21.35 ± 2.1 mPa·s
  mass density: 1206.1 ± 1.3 kg/m3
333.15 K, x1 = 0.0316
  viscosity: 0.817 ± 0.082 mPa·s
  mass density: 1053.5 ± 1.1 kg/m3
333.15 K, x1 = 0.0695
  viscosity: 1.504 ± 0.15 mPa·s
  mass density: 1104.7 ± 1 kg/m3
333.15 K, x1 = 0.0965
  viscosity: 2.234 ± 0.22 mPa·s
  mass density: 1130 ± 1 kg/m3
333.15 K, x1 = 0.1196
  viscosity: 3.003 ± 0.3 mPa·s
  mass density: 1145.9 ± 1 kg/m3
333.15 K, x1 = 0.1522
  viscosity: 4.616 ± 0.46 mPa·s
  mass density: 1163.6 ± 1.1 kg/m3
333.15 K, x1 = 0.2054
  viscosity: 8.297 ± 0.83 mPa·s
  mass density: 1184.4 ± 1.1 kg/m3
333.15 K, x1 = 0.219
  viscosity: 9.561 ± 0.96 mPa·s
  mass density: 1188.5 ± 1.2 kg/m3
333.15 K, x1 = 0.2438
  viscosity: 12.38 ± 1.2 mPa·s
  mass density: 1195.4 ± 1.2 kg/m3
333.15 K, x1 = 0.2754
  viscosity: 17.33 ± 1.7 mPa·s
  mass density: 1202.7 ± 1.3 kg/m3
338.15 K, x1 = 0.0316
  viscosity: 0.74 ± 0.074 mPa·s
  mass density: 1050.5 ± 1.1 kg/m3
338.15 K, x1 = 0.0695
  viscosity: 1.374 ± 0.14 mPa·s
  mass density: 1101.2 ± 1 kg/m3
338.15 K, x1 = 0.0965
  viscosity: 1.965 ± 0.2 mPa·s
  mass density: 1126.5 ± 1 kg/m3
338.15 K, x1 = 0.1196
  viscosity: 2.724 ± 0.27 mPa·s
  mass density: 1142.3 ± 1 kg/m3
338.15 K, x1 = 0.1522
  viscosity: 3.961 ± 0.4 mPa·s
  mass density: 1160.1 ± 1.1 kg/m3
338.15 K, x1 = 0.2054
  viscosity: 7.055 ± 0.71 mPa·s
  mass density: 1180.9 ± 1.1 kg/m3
338.15 K, x1 = 0.219
  viscosity: 8.079 ± 0.81 mPa·s
  mass density: 1185.1 ± 1.2 kg/m3
338.15 K, x1 = 0.2438
  viscosity: 10.39 ± 1 mPa·s
  mass density: 1192 ± 1.2 kg/m3
338.15 K, x1 = 0.2754
  viscosity: 14.54 ± 1.5 mPa·s
  mass density: 1199.3 ± 1.3 kg/m3
343.15 K, x1 = 0.0316
  viscosity: 0.677 ± 0.068 mPa·s
  mass density: 1047.2 ± 1.1 kg/m3
343.15 K, x1 = 0.0695
  viscosity: 1.288 ± 0.13 mPa·s
  mass density: 1097.8 ± 1 kg/m3
343.15 K, x1 = 0.0965
  viscosity: 1.733 ± 0.17 mPa·s
  mass density: 1122.9 ± 1 kg/m3
343.15 K, x1 = 0.1196
  viscosity: 2.554 ± 0.26 mPa·s
  mass density: 1138.7 ± 1 kg/m3
343.15 K, x1 = 0.1522
  viscosity: 3.412 ± 0.34 mPa·s
  mass density: 1156.5 ± 1.1 kg/m3
343.15 K, x1 = 0.2054
  viscosity: 6.064 ± 0.61 mPa·s
  mass density: 1177.5 ± 1.1 kg/m3
343.15 K, x1 = 0.219
  viscosity: 7.061 ± 0.71 mPa·s
  mass density: 1181.6 ± 1.2 kg/m3
343.15 K, x1 = 0.2438
  viscosity: 8.615 ± 0.87 mPa·s
  mass density: 1188.5 ± 1.2 kg/m3
343.15 K, x1 = 0.2754
  viscosity: 12.93 ± 1.3 mPa·s
  mass density: 1196 ± 1.3 kg/m3
